How the values were obtained:
[1] = system: embryonic chick DRG neurons; test: Cryoculture bioassay (neurite outgrowth) on sections of acellular rat nerve segments; format: cell-based
Procedure: Cryoculture is a neurite outgrowth assay in which neurons are cultured directly on fresh/frozen nerve sections and was performed as described previously (Ferguson T A et al. [2000] Mol Cell Neurosci, 16:157-167). Briefly, chondroitinase- and vehicle-treated nerve segments were sectioned at 20 μm, mounted on sterile, aminopropyltriethoxysilane (APTS)-coated coverslips and stored at −20° C. until used. Where indicated, sections were treated with chondroitinase ABC (0.1 unit/ml) or vehicle (50 mM Tris-HCl, pH 8.0), containing 50 mM NaCl) for 2 h at 37° C. Purified dorsal root ganglionic (DRG) neurons from day 8 chick embryos were seeded directly on the nerve sections in a defined N2 medium (Bottenstein J E et al. [1980] Exp Cell Res 125:183-190) containing 10 ng/ml nerve growth factor. Cryoculture assays were terminated after 24 h of incubation by fixation with 100% methanol. Neuritic growth by DRG neurons was accessed by GAP-43 immunofluorescent labeling. Epifluorescent photomicrographs were acquired as described for tissue sections. Neurite lengths were measured directly using IMAGE-PRO PLUS software (MEDIA CYBERNETICS, Silver Springs, Md.). At least 250 neurons with neurites greater than one cell body (˜15 μm) were scored for each condition in each experiment.
Inactivation of inhibitory CSPG in chondroitinase-treated acellular nerve was determined by cryoculture bioassay. Embryonic chick DRG neurons were seeded onto sections of prepared nerve segments and the neurite-promoting activity was assessed by scoring neurite growth. On sections of acellular nerve pretreated en bloc with vehicle only the average neurite length was 49 μm. Neurite growth on acellular nerve pretreated en bloc with chondroitinase averaged 96 μm, representing a 95% increase compared to the control condition. To determine if the en bloc chondroitinase treatment was thorough, cryoculture assays were performed on nerve tissues treated with chondroitinase after sectioning (post-treatment).

rat sciatic nerve = test: Axonal regeneration after sciatic nerve transection (neurotmesis) and neurorrhaphic repair; format: in vivo
Procedure: All surgical procedures were performed according to Institutional Animal Care and Use Committee (IACUC) approved protocols. Young adult SPRAGUE DAWLEY rats (HARLAN Indianapolis, Ind.) were deeply anesthetized with xylazine (15 mg/kg, i.m.) followed by ketamine-HCl (110 mg/kg, i.p.). Six animals received bilateral nerve crush injuries. Sciatic nerves were exposed and then crushed with firm pressure for thirty seconds with a DUMONT #5 forceps at a site 4 mm distal to the tendon of the internal obdurator. The crush site was marked with an epineurial suture. In a separate set of experiments, eight rats received bilateral sciatic nerve transection injuries using serrated scissors. The proximal and distal stumps were coated by epineurial neurorrhaphy using 9-0 ETHILON sutures. Fibrin glue (fibrinogen and thrombin) was then applied to stabilize the union. In both injury models, the right sciatic nerves were injected 2-mm distal to the injury with chondroitinase ABC (1 U in 2 μl) (high-purity, protease-free; SIGMA CHEMICAL CO., St. Louis, […].). Left sciatic nerves (with the same injury as the right side) were injected with vehicle alone (0.1% bovine serum albumin in PBS). Muscle incisions were sutured and the skin closed with metal clips. After recovery from the anesthetic, animals were returned to standard housing. Two days (for crush injury) and four days (for transection injury) after surgery, nerves were removed under anesthesia and fixed as described below. One of the eight animals receiving nerve transection and repair was excluded because loss of continuity in one nerve occurred during convalescence.
The hypothesis that chondroitinase treatment improves axonal growth through the site of nerve coaptation was tested. Bilateral neurotmesis was achieved by a scissor cut of the sciatic nerves which were then repaired by epineurial suture and fibrin glue. One nerve was injected with chondroitinase ABC and the contralateral nerve received vehicle alone. Because of the latency of regeneration after nerve transection, axonal growth across the coaptation was examined four days after injury. In control nerves, the ingress of axons occurred mainly in patches and was limited to discrete subsections of the distal nerve; otherwise only a few axons were found scattered throughout the remaining nerve cross-section, as shown in FIG. 14A. The number of axons extending farther into the distal (after 4 days) rapidly diminished and approached zero within 3 mm from the coaptation. In contrast, axon ingress into chondroitinase-treated nerves was more robust and widespread throughout the entire nerve cross-section. In 7/7 animals, the number of axons that entered the distal nerve was greater in the chondroitinase-treated nerve than in the control nerve. […]

With chondroitinase ABC the “increase in neurite growth compared to the control condition” value ([1]; acellular nerve pretreated en bloc vs en bloc vehicle) was 95%, the average neurite length ([1]; acellular nerve pretreated en bloc, DRG neurons grown 24 h) was 96 μm and the “increase in neurite-promoting activity by post-treatment of sections” value ([1]; acellular nerve treated en bloc with vehicle only, sections post-treated with chondroitinase) was 86%. The “effect of post-treatment on sections from en bloc chondroitinase-treated nerve grafts” value ([1]; post-treatment after sectioning) was “only a slight additive effect”, the “propensity of axons to regrow within basal laminae of the distal nerve” value (rat sciatic nerve; GAP-43/laminin double-immunolabeling) was “unaltered” and the “animals in which the number of axons entering the distal nerve was greater than in the control nerve” value (rat sciatic nerve; four days after injury) was 7/7. For the same substance, the “score of axons immediately distal to the coaptation vs control nerves” value (rat sciatic nerve; four days after transection and repair, 1 U in 2 μl injected, n=7) was “two-fold greater” and the “animals with increases greater than 3.5-fold” value (rat sciatic nerve; score of axons immediately distal to the coaptation, four days) was 3/7.

— patent publication US10441681B2, “Materials and methods for nerve grafting” (University of Florida Research Foundation, Inc., priority 2001, dated 2019)
